In patent US10150766B2, “P2X7 modulators” (Jansssen Pharmaceutica NV, priority 2014, dated 2018):
Read-outs that look alike come from different tables or passages of the source.

How the values were obtained:
[1] = biological target: T1, P2X7 (Homo sapiens (Human), UniProt Q99572); assay: Radioligand binding ([3H]A-804598) to membranes of human P2X7-1321N1 cells; settings: human P2X7-1321N1 membranes, tracer tritiated A-804598, 1 hour at 4° C.
Method: P2X7 Antagonism in Recombinant Human P2X7 Cells or Recombinant Rat P2X7 Cells:
human or rat P2X7-1321N1 cells were collected and frozen @ −80° C. On the day of the experiment, cell membrane preparations were made according to standard published methods. […] The compound can be prepared as described in the literature. […] The assay was terminated by filtration (GF/B filters pre-soaked with 0.3% PEI) and washed with washing buffer (Tris-HCl 50 mM). The IC50 generated in the binding assay was corrected for tracer concentration and affinity of the tracer to derive at the affinity (Ki) of the test compounds. The data are presented in Table 2 under the headings: P2X7 human Ki (μM) and P2X7 rat Ki (μM). Data are analyzed and graphed on Graphpad Prism 5. For analysis, each concentration point is averaged from triplicate values and the averaged values are plotted on Graphpad Prism.

[2] = biological target: rat P2X7 (Rattus norvegicus (Rat), UniProt Q64663); assay: P2X7 antagonism in recombinant rat P2X7 cells (column headed P2X7 Rat IC50); assay type: binding
Chain of rat P2X7 (Q64663 whole entry): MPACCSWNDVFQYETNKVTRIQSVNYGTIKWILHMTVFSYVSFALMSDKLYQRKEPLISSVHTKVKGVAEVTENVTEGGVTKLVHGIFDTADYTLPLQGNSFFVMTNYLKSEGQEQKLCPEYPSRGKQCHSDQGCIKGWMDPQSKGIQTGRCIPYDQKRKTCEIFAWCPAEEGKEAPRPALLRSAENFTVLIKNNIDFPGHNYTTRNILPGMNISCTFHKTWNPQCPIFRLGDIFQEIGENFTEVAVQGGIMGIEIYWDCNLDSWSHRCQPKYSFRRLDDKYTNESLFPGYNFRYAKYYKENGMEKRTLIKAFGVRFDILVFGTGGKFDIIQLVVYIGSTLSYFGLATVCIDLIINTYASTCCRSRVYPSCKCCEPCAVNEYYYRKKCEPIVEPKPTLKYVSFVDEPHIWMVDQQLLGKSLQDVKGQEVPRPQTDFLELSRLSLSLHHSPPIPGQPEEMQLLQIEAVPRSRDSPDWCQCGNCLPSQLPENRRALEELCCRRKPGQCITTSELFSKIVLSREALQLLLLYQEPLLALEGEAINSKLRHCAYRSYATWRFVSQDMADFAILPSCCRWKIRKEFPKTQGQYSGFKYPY

[3] = biological target: T1, P2X7; assay: P2X7 antagonism in human whole blood, IL-1β release (LPS + Bz-ATP, ELISA); assay type: cell-based; settings: LPS 30 ng/ml + Bz-ATP 1 mM
[4] = biological target: T1, P2X7; assay: P2X7 antagonism in human peripheral blood mononuclear cells (PBMCs), IL-1β release (LPS + Bz-ATP, ELISA); assay type: cell-based; settings: P2X7, 10 μM test compound, LPS 30 ng/ml + Bz-ATP 0.5 mM, read-out: PBMC @10 μM (% control)
[5] = read-out: Human Whole Blood IC50

T1 sequence (Q99572 whole entry): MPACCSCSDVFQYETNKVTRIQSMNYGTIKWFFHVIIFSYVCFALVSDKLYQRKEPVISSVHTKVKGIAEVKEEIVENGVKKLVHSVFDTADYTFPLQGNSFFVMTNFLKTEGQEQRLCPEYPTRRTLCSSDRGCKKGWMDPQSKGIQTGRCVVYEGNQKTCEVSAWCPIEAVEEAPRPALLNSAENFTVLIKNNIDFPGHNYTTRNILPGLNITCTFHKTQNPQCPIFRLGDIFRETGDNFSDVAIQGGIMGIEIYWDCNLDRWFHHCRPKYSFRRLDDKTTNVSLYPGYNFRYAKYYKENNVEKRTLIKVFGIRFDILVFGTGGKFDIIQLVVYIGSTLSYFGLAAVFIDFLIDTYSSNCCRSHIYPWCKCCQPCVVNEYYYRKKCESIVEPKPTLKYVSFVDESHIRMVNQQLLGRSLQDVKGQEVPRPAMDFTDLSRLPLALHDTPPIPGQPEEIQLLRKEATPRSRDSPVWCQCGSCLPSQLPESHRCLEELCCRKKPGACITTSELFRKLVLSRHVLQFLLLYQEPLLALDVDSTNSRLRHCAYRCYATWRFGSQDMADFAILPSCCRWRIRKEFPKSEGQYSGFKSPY

| SMILES | Ki [1] [nM] | IC50 [2] [nM] | IC50 ([3]; Human Whole Blood IC50 (μM)) [µM] | remaining activity at 10 µM [4] [%] | IC50 [3, 5] [µM] |
| --- | --- | --- | --- | --- | --- |
| Cc1nc(-c2ccc(F)cc2)c2c(n1)[C@H]1CCC[C@@H](C2)N1C(=O)c1cccc(Cl)c1Cl [Example 55, (2,3-dichlorophenyl)((6S,10R)-4-(4-fluorophenyl)-2-methyl-5,6,7,8,9,10-hexahydro-6,10-epiminocycloocta[d]pyrimidin-11-yl)methanone] | 105 | 217 | 0.037 | -1.6 |  |
| Cc1nc(-c2ccnn2C)c2c(n1)[C@H]1CCC[C@@H](C2)N1C(=O)c1cccc(C(F)(F)F)c1Cl [Example 56, (2-chloro-3-(trifluoromethyl)phenyl)((6S,10R)-2-methyl-4-(1-methyl-1H-pyrazol-5-yl)-5,6,7,8,9,10-hexahydro-6,10-epiminocycloocta[d]pyrimidin-11-yl)methanone] | 100 | 11.6 | 0.048 | -2.9 |  |
| Cc1nc(-c2ccnn2C)c2c(n1)[C@H]1CCC[C@@H](C2)N1C(=O)c1cccc(C(F)(F)F)c1C [Example 57, (2-methyl-3-(trifluoromethyl)phenyl)((6S,10R)-2-methyl-4-(1-methyl-1H-pyrazol-5-yl)-5,6,7,8,9,10-hexahydro-6,10-epiminocycloocta[d]pyrimidin-11-yl)methanone] | 190 | 597 |  | -0.3 | 0.191 |
| Cc1nc(-c2ccnn2C)c2c(n1)[C@H]1CCC[C@@H](C2)N1C(=O)c1ccc(Cl)c(F)c1Cl [Example 58, (2,4-dichloro-3-fluorophenyl)((6S,10R)-2-methyl-4-(1-methyl-1H-pyrazol-5-yl)-5,6,7,8,9,10-hexahydro-6,10-epiminocycloocta[d]pyrimidin-11-yl)methanone] | 93.3 | 805 |  | -3.3 | 0.13 |
| Cc1nc(-c2ccnn2C)c2c(n1)[C@H]1CCC[C@@H](C2)N1C(=O)c1cccc(Cl)c1Cl [Example 59, (2,3-dichlorophenyl)((6S,10R)-2-methyl-4-(1-methyl-1H-pyrazol-5-yl)-5,6,7,8,9,10-hexahydro-6,10-epiminocycloocta[d]pyrimidin-11-yl)methanone] | 135 | 1090 |  | -1.8 | 0.372 |
| Cc1nc(-c2ccccn2)c2c(n1)[C@H]1CCC[C@@H](C2)N1C(=O)c1cccc(C(F)(F)F)c1C [Example 62, (2-methyl-3-(trifluoromethyl)phenyl)((6S,10R)-2-methyl-4-(pyridin-2-yl)-5,6,7,8,9,10-hexahydro-6,10-epiminocycloocta[d]pyrimidin-11-yl)methanone] | 63.1 | 51.3 | 0.058 | -1.4 |  |
| Cc1nc(-c2ccccn2)c2c(n1)[C@H]1CCC[C@@H](C2)N1C(=O)c1cccc(C(F)(F)F)c1Cl [Example 63, (2-chloro-3-(trifluoromethyl)phenyl)((6S,10R)-2-methyl-4-(pyridin-2-yl)-5,6,7,8,9,10-hexahydro-6,10-epiminocycloocta[d]pyrimidin-11-yl)methanone] | 39.8 | 33.1 | 0.068 | -0.9 |  |
| Cc1nc(-c2ccccn2)c2c(n1)[C@H]1CCC[C@@H](C2)N1C(=O)c1ccc(Cl)c(F)c1Cl [Example 64, (2,4-dichloro-3-fluorophenyl)((6S,10R)-2-methyl-4-(pyridin-2-yl)-5,6,7,8,9,10-hexahydro-6,10-epiminocycloocta[d]pyrimidin-11-yl)methanone] | 20 | 376 | 0.037 | -2.8 |  |
| Cc1nc(-c2ccccn2)c2c(n1)[C@H]1CCC[C@@H](C2)N1C(=O)c1cccc(Cl)c1Cl [Example 65, (2,3-dichlorophenyl)((6S,10R)-2-methyl-4-(pyridin-2-yl)-5,6,7,8,9,10-hexahydro-6,10-epiminocycloocta[d]pyrimidin-11-yl)methanone] | 49 | 184 | 0.042 | 0.1 |  |
